In ChEMBL document CHEMBL1201862, “PubChem BioAssay data set” (2004):
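1) Cells in 96-well plates. 2) Compound, 48 h, 5 concentrations. 3) Linear interpolation between surrounding doses. 4) Unreached endpoint = highest concentration. GI50: concentration for 50% inhibition of growth.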 Calls of active or inactive are those of the source. Rule as the data show it: active = GI50 up to about 1.1 µM and inactive = higher.

Assays:
Assay in all cases: NCI tumour cell line growth inhibition, 48 h
[1] = system: 786-0
[2] = system: A498
[3] = system: A549
[4] = system: ACHN
[5] = system: BT-549
[6] = system: CAKI-1
[7] = system: CCRF-CEM
[8] = system: COLO 205
[9] = system: DU-145
[10] = system: EKVX
[11] = system: HCC 2998
[12] = system: HCT-116
[13] = system: HCT-15
[14] = system: HL-60
[15] = system: HOP-62
[16] = system: HOP-92
[17] = system: HT-29
[18] = system: Hs-578T
[19] = system: IGROV-1
[20] = system: K562
[21] = system: KM12
[22] = system: LOX IMVI
[23] = system: M14
[24] = system: MCF7
[25] = system: MDA-MB-231
[26] = system: MDA-MB-435
[27] = system: MDA-N
[28] = system: MOLT-4
[29] = system: NCI-H460
[30] = system: NCI/ADR-RES
[31] = system: OVCAR-3
[32] = system: OVCAR-4
[33] = system: OVCAR-5
[34] = system: OVCAR-8
[35] = system: PC-3
[36] = system: RPMI-8226
[37] = system: SF-268
[38] = system: SF-295
[39] = system: SF-539
[40] = system: SK-MEL-2
[41] = system: SK-MEL-5
[42] = system: SK-OV-3
[43] = system: SN12C
[44] = system: SNB-19
[45] = system: SNB-75
[46] = system: SR
[47] = system: SW-620
[48] = system: T47D
[49] = system: TK-10
[50] = system: U-251
[51] = system: UACC-257
[52] = system: UACC-62
[53] = system: UO-31
[54] = system: Malme-3M
[55] = system: NCI-H226
[56] = system: NCI-H23
[57] = system: NCI-H522
[58] = system: RXF 393
[59] = system: SK-MEL-28

Cc1cnc(-c2c[nH]c3ccccc23)nc1-c1c[nH]c2ccccc12
GI50 [1]: 3.58 µM (inactive)
GI50 [2]: 2.6 µM (inactive)
GI50 [3]: 3.64 µM (inactive)
GI50 [4]: 2.94 µM (inactive)
GI50 [5]: 19 µM (inactive)
GI50 [6]: 5.4 µM (inactive)
GI50 [7]: 1.52 µM (inactive)
GI50 [8]: 4.58 µM (inactive)
GI50 [9]: 6.73 µM (inactive)
GI50 [10]: 6.21 µM (inactive)
GI50 [11]: 4.67 µM (inactive)
GI50 [12]: 4.56 µM (inactive)
GI50 [13]: 5.81 µM
GI50 [14]: 5 µM (inactive)
GI50 [15]: 11.7 µM (inactive)
GI50 [16]: 2.03 µM (inactive)
GI50 [17]: 4.18 µM (inactive)
GI50 [18]: 17.9 µM (inactive)
GI50 [19]: 1.14 µM (inactive)
GI50 [20]: 3.3 µM (inactive)
GI50 [21]: 3.78 µM (inactive)
GI50 [22]: 3.62 µM (inactive)
GI50 [23]: 4.32 µM (inactive)
GI50 [24]: 3.05 µM (inactive)
GI50 [25]: 2.31 µM (inactive)
GI50 [26]: 5.87 µM (inactive)
GI50 [27]: 4.2 µM (inactive)
GI50 [28]: 4.2 µM (inactive)
GI50 [29]: 2.65 µM (inactive)
GI50 [30]: 7.67 µM (inactive)
GI50 [31]: 8.13 µM (inactive)
GI50 [32]: 5.2 µM (inactive)
GI50 [33]: 5.5 µM (inactive)
GI50 [34]: 6.08 µM (inactive)
GI50 [35]: 3.49 µM (inactive)
GI50 [36]: 3.9 µM (inactive)
GI50 [37]: 15.9 µM (inactive)
GI50 [38]: 3.29 µM (inactive)
GI50 [39]: 11.7 µM (inactive)
GI50 [40]: 6.44 µM (inactive)
GI50 [41]: 6.97 µM (inactive)
GI50 [42]: 11.2 µM (inactive)
GI50 [43]: 1.68 µM (inactive)
GI50 [44]: 7.89 µM (inactive)
GI50 [45]: 2.39 µM (inactive)
GI50 [46]: 11.3 µM (inactive)
GI50 [47]: 11.5 µM (inactive)
GI50 [48]: 1.75 µM (inactive)
GI50 [49]: 5.31 µM (inactive)
GI50 [50]: 6.46 µM (inactive)
GI50 [51]: 6.82 µM (inactive)
GI50 [52]: 4.27 µM (inactive)
GI50 [53]: 6.97 µM (inactive)

CCOC1NC(=O)Oc2cc3ccccc3cc21 (stereo unspecified)
GI50 [1]: > 100 µM (inactive)
GI50 [3]: > 100 µM (inactive)
GI50 [4]: > 100 µM (inactive)
GI50 [5]: 44.1 µM (inactive)
GI50 [7]: 36.5 µM (inactive)
GI50 [8]: > 100 µM (inactive)
GI50 [9]: > 100 µM (inactive)
GI50 [10]: > 100 µM (inactive)
GI50 [11]: > 100 µM (inactive)
GI50 [12]: 35 µM (inactive)
GI50 [13]: 34.4 µM
GI50 [14]: 31.3 µM (inactive)
GI50 [15]: > 100 µM (inactive)
GI50 [16]: 29.6 µM (inactive)
GI50 [17]: > 100 µM (inactive)
GI50 [18]: > 100 µM (inactive)
GI50 [19]: > 100 µM (inactive)
GI50 [20]: 40.6 µM (inactive)
GI50 [21]: > 100 µM (inactive)
GI50 [22]: 67.1 µM (inactive)
GI50 [23]: 39 µM (inactive)
GI50 [24]: 35.6 µM (inactive)
GI50 [25]: > 100 µM (inactive)
GI50 [26]: > 100 µM (inactive)
GI50 [27]: > 100 µM (inactive)
GI50 [28]: 34.8 µM (inactive)
GI50 [54]: > 100 µM (inactive)
GI50 [55]: > 100 µM (inactive)
GI50 [56]: > 100 µM (inactive)
GI50 [29]: > 100 µM (inactive)
GI50 [57]: > 100 µM (inactive)
GI50 [30]: 99.5 µM (inactive)
GI50 [31]: 30.2 µM (inactive)
GI50 [32]: > 100 µM (inactive)
GI50 [33]: > 100 µM (inactive)
GI50 [34]: 48.6 µM (inactive)
GI50 [35]: 29 µM (inactive)
GI50 [36]: 95.9 µM (inactive)
GI50 [58]: > 100 µM (inactive)
GI50 [37]: > 100 µM (inactive)
GI50 [38]: > 100 µM (inactive)
GI50 [39]: 68.1 µM (inactive)
GI50 [59]: > 100 µM (inactive)
GI50 [41]: > 100 µM (inactive)
GI50 [42]: > 100 µM (inactive)
GI50 [43]: > 100 µM (inactive)
GI50 [44]: 64.3 µM (inactive)
GI50 [45]: 60.5 µM (inactive)
GI50 [46]: 48.5 µM (inactive)
GI50 [47]: > 100 µM (inactive)
GI50 [48]: 39.6 µM (inactive)
GI50 [49]: > 100 µM (inactive)
GI50 [50]: 36.1 µM (inactive)
GI50 [51]: > 100 µM (inactive)
GI50 [52]: 42.6 µM (inactive)
GI50 [53]: > 100 µM (inactive)

Cc1nc(N/N=C/c2ccccc2Cl)[nH]c(=O)c1CCO
GI50 [1]: > 100 µM (inactive)
GI50 [3]: > 100 µM (inactive)
GI50 [4]: > 100 µM (inactive)
GI50 [5]: 57.1 µM (inactive)
GI50 [6]: > 10 µM (inactive)
GI50 [7]: > 100 µM (inactive)
GI50 [8]: > 100 µM (inactive)
GI50 [9]: > 100 µM (inactive)
GI50 [10]: 86.9 µM (inactive)
GI50 [11]: > 100 µM (inactive)
GI50 [12]: 38.8 µM (inactive)
GI50 [13]: 81.1 µM
GI50 [14]: > 100 µM (inactive)
GI50 [15]: 21.1 µM (inactive)
GI50 [16]: 21.5 µM (inactive)
GI50 [17]: > 100 µM (inactive)
GI50 [18]: 29.4 µM (inactive)
GI50 [19]: 34 µM (inactive)
GI50 [20]: > 100 µM (inactive)
GI50 [21]: 59.7 µM (inactive)
GI50 [22]: > 100 µM (inactive)
GI50 [23]: 87.7 µM (inactive)
GI50 [24]: 36.2 µM (inactive)
GI50 [25]: 71 µM (inactive)
GI50 [26]: > 100 µM (inactive)
GI50 [27]: > 100 µM (inactive)
GI50 [28]: > 100 µM (inactive)
GI50 [54]: 22 µM (inactive)
GI50 [55]: > 100 µM (inactive)
GI50 [56]: 35.8 µM (inactive)
GI50 [29]: 80 µM (inactive)
GI50 [57]: 17.9 µM (inactive)
GI50 [30]: 61.1 µM (inactive)
GI50 [31]: 19.6 µM (inactive)
GI50 [32]: 87.3 µM (inactive)
GI50 [33]: > 100 µM (inactive)
GI50 [34]: 22 µM (inactive)
GI50 [35]: > 100 µM (inactive)
GI50 [36]: 25.9 µM (inactive)
GI50 [58]: 25.9 µM (inactive)
GI50 [37]: 33.5 µM (inactive)
GI50 [38]: 25.2 µM (inactive)
GI50 [39]: 77.4 µM (inactive)
GI50 [59]: 73.8 µM (inactive)
GI50 [41]: > 100 µM (inactive)
GI50 [42]: 23.1 µM (inactive)
GI50 [43]: 47.4 µM (inactive)
GI50 [44]: 51.6 µM (inactive)
GI50 [45]: 17.2 µM (inactive)
GI50 [46]: > 100 µM (inactive)
GI50 [47]: > 100 µM (inactive)
GI50 [48]: 24.8 µM (inactive)
GI50 [49]: 76 µM (inactive)
GI50 [50]: 49.3 µM (inactive)
GI50 [51]: > 100 µM (inactive)
GI50 [52]: 34.4 µM (inactive)
GI50 [53]: > 100 µM (inactive)
